20 compounds from PMC7787731, “Synthesis and Characterization of New Dihydronaphthalene Candidates as Potent Cytotoxic Agents against MCF-7 Human Cancer Cells” (BioMed Research International, 2020) can be followed below.

As a reminder, the IC50 is the concentration that inhibits the measured activity by half. What is called melting point is the temperature of the solid-liquid transition.

Structures are written as SMILES. Read-outs that look alike come from different tables or passages of the source.

In data set [1] the test system is normal epithelial breast cells (MCF10A). The data set is described as follows: In vitro cytotoxicity MTT assay against normal breast MCF10A cells. In kind it is cell-based. Particulars: for IC50: Homo sapiens, MCF-10A, MTT assay, normal breast cell line, mean ± SD of three replicates. The text has this:
Statistical significance was defined when p < 0.05.
In general terms: Tetrazolium assays rely on reduction of a dye to a coloured formazan, in cell work by metabolically active cells.

Data set [2] relates to MCF-7 (human breast adenocarcinoma) cell lines. Put plainly: In vitro cytotoxicity MTT assay against breast cancer MCF-7 cells.
Method: Both MCF-7 and MCF10A cells were purchased from American Type Culture Collection (ATCC). Cells were grown in DMEM culture medium (Invitrogen/Life Technologies) supplemented with 10% FBS (Hyclone, USA), 10 μg/mL insulin (Sigma), and 1% penicillin-streptomycin antibiotic solution. Chemicals used were of cell culture grade and were purchased from Sigma or Invitrogen. Prior to the assay, cells (cells density 1.2–1.8 × 10,000 cells/well) were plated in 96-well plate with 100 μL medium and were allowed to grow for 24 h.
In vitro cytotoxic activity of the prepared compounds against breast (MCF-7) cancer cells was assessed using MTT assay [24, 25]. The assay depends on the mitochondrial reduction of the colorless 3-(4,5-methyl-2-thiazolyl)-2,5-diphenyl-2H-tetrazolium bromide (MTT) within viable cells into a dark blue formazan product. […] The supernatant was taken away from each well, and 100 μL of DMSO was added to each well to dissolve the formazan crystals. After mixing with a mechanical plate mixer, a microplate reader was used to measure the absorbance of each well at a wavelength of 570 nm. […] IC50 values were calculated from the linear regression of the corresponding calibration curves using the Origin® 6.1 software.
Results were analyzed with the help of SPSS 9.0 and were presented as mean ± SD of three replicates. The mean comparison between different evaluated groups was performed using ANOVA one-way analysis of variance. Statistical significance was defined when p < 0.05.
Setting [3] is: Homo sapiens, MCF7, 72 h, read-out: IC50 (μM) MCF-7, MTT assay, 0.39-100 μM, 3 days, mean ± SD of three replicates.

In turn, `COc1ccc2c(c1)CCCC2=NNC(=S)Nc1ccc(Br)cc1` [Compound 3a, N-(4-Bromophenyl)-2-(6-methoxy-3,4-dihydronaphthalen-1(2H)-ylidene)hydrazine-1-carbo thioamide] gave a melting point of 191 to 193 °C. In data set [1], the IC50 was determined as 35.4 ± 0.64 µM. For the same compound, in data set [2] (setting [3]), the IC50 was found to be 12.7 ± 0.33 µM. The “decrease in cytotoxicity relative to N-ethyl thiourea derivative 3d” value in data set [2] (MCF-7, N-4-bromophenyl versus N-ethyl substitution) was “more than 3 times”.

Take `COc1ccc2c(c1)CCCC2=NNC(=S)Nc1ccc(F)cc1` [Compound 3b, N-(4-Fluorophenyl)-2-(6-methoxy-3,4-dihydronaphthalen-1(2H)-ylidene)hydrazine-1-carbo thioamide]: the melting point lay within 154 to 156 °C.

As to `COc1ccc2c(c1)CCCC2=NNC(=S)Nc1ccc(Oc2ccccc2)cc1` [Compound 3c, 2-(6-Methoxy-3,4-dihydronaphthalen-1(2H)-ylidene)-N-(4-phenoxyphenyl)-hydrazine-1-carbo thioamide], the melting point was determined as 171 °C.

With `CCNC(=S)NN=C1CCCc2cc(OC)ccc21` [Compound 3d, N-(4-Ethyl)-2-(6-methoxy-3,4-dihydronaphthalen-1(2H)-ylidene)hydrazine-1-carbothioamide], the melting point was in the range of 150 to 153 °C. Besides, the IC50 in data set [1] came to 19.7 ± 0.51 µM. Also, the half-inhibitory concentration (IC50) in data set [2] (setting [3]) is 3.73 ± 0.09 µM.

As for `COc1ccc2c(c1)CCCC2=NN1C(=O)CSC1=Nc1ccc(Br)cc1` [Compound 4a, 2-((4-Bromophenyl)imino)-3-((6-methoxy-3,4-dihydronaphthalen-1(2H)-ylidene)amino) thiazolidin-4-one], the melting point is 183 °C. The same compound displayed an IC50 in data set [1] of 68 ± 0.86 µM. Besides, the IC50 in data set [2] (setting [3]) was 28.6 ± 0.74 µM.

As to `COc1ccc2c(c1)CCCC2=NN1C(=O)CSC1=Nc1ccc(F)cc1` [Compound 4b, 2-((4-Fluorophenyl)imino)-3-((6-methoxy-3,4-dihydronaphthalen-1(2H)-ylidene)amino) thiazolidin-4-one], the melting point is 190 °C. In data set [1], 29.2 ± 0.36 µM corresponded to half-maximal inhibition (IC50). Moreover, the IC50 in data set [2] (setting [3]) is 10.2 ± 0.26 µM.

Compound `COc1ccc2c(c1)CCCC2=NN1C(=O)CSC1=Nc1ccc(Oc2ccccc2)cc1` [Compound 4c, 3-((6-Methoxy-3,4-dihydronaphthalen-1(2H)-ylidene)amino)-2-((4-phenoxyphenyl)imino) thiazolidin-4-one] displayed a melting point of 171 °C.

`CCN=C1SCC(=O)N1N=C1CCCc2cc(OC)ccc21` [Compound 4d, 2-(Ethylimino)-3-((6-methoxy-3,4-dihydronaphthalen-1(2H)-ylidene)amino)thiazolidin-4-one]: the melting point worked out at 117 °C. The same compound registered an IC50 in data set [1] of 30.7 ± 0.53 µM. Moreover, the IC50 in data set [2] (setting [3]) was 10.1 ± 0.26 µM.

Regarding `COc1ccc(C2C(C#N)=C(N)Oc3c2sc(=Nc2ccc(Br)cc2)n3N=C2CCCc3cc(OC)ccc32)cc1` (stereo not drawn) [Compound 5a, 5-Amino-2-((4-bromophenyl)imino)-3-((6-methoxy-3,4-dihydronaphthalen-1(2H)-ylidene)amino)-7-(4-methoxyphenyl)-3,7-dihydro-2H-pyrano [2,3-d]thiazole-6-carbonitrile], the melting point turned out to be 247 °C. In addition, the IC50 in data set [1] worked out at 17.2 ± 0.44 µM. Further, the “less toxic than Saturosporin towards MCF01A normal cells” value in data set [1] (compared with Saturosporin as worded) is “about 18.45 folds”. The IC50 in data set [2] (setting [3]) is 0.93 ± 0.02 µM.

Consider `COc1ccc2c(c1)CCCC2=Nn1c2c(sc1=Nc1ccc(Br)cc1)C(c1ccc([N+](=O)[O-])cc1)C(C#N)=C(N)O2` (stereo not drawn) [Compound 5b, 5-Amino-2-((4-bromophenyl)imino)-3-((6-methoxy-3,4-dihydronaphthalen-1(2H)-ylidene)amino)-7-(4-nitrophenyl)-3,7-dihydro-2H-pyrano [2,3-d]thiazole-6-carbonitrile], for which the melting point was found to be 213 °C.

Consider `COc1ccc(C2C(C#N)=C(N)Oc3c2sc(=Nc2ccc(Oc4ccccc4)cc2)n3N=C2CCCc3cc(OC)ccc32)cc1` (stereo not drawn) [Compound 5d, 5-Amino-3-((6-methoxy-3,4-dihydronaphthalen-1(2H)-ylidene)amino)-7-(4-methoxyphenyl) -2-((4-phenoxyphenyl)imino)--3,7-dihydro-2H-pyrano [2,3-d]thiazole-6-carbonitrile], for which the melting point worked out at 209 °C. The compound further displayed an IC50 in data set [1] of 16.3 ± 0.42 µM. Further, the IC50 in data set [2] (setting [3]) stood at 1.76 ± 0.04 µM.

Compound `COc1ccc2c(c1)CCCC2=Nn1c2c(sc1=Nc1ccc(Oc3ccccc3)cc1)C(c1ccc([N+](=O)[O-])cc1)C(C#N)=C(N)O2` (stereo not drawn) [Compound 5e, 5-Amino-3-((6-methoxy-3,4-dihydronaphthalen-1(2H)-ylidene)amino)-7-(4-nitrophenyl)-2-((4-phenoxyphenyl)imino)--3,7-dihydro-2H-pyrano [2,3-d]thiazole-6-carbonitrile] came in with a melting point of 223 °C. In data set [1], this compound yielded an IC50 of 14.1 ± 0.36 µM. The IC50 in data set [2] (setting [3]) amounted to 2.36 ± 0.06 µM.

Compound `COc1ccc2c(c1)CCCC2=Nn1c2c(sc1=Nc1ccc(Oc3ccccc3)cc1)C(c1ccco1)C(C#N)=C(N)O2` (stereo not drawn) [Compound 5f, 5-Amino-7-(furan-2-yl)-3-((6-methoxy-3,4-dihydronaphthalen-1(2H)-ylidene)amino)-2-((4-phenoxyphenyl)imino)-3,7-dihydro-2H-pyrano [2,3-d]thiazole-6-carbonitrile] displayed a melting point of 280 °C.

As to `COc1ccc2c(c1)CCCC2=NN1C(=O)C(=CN(C)C)SC1=Nc1ccc(Br)cc1` [Compound 6, 2-((4-Bromophenyl)imino)-5-((dimethylamino)methylene)-3-((6-methoxy-3,4-dihydronaphthalene-1(2H)-ylidene)amino)thiazolidin-4-one], the melting point came out at 236 °C. In data set [1], this compound gave a concentration for half-maximal inhibition (IC50) of 17.78 ± 0.16 µM. In data set [2] (setting [3]), the IC50 stood at 7.48 ± 0.19 µM.

The compound `CCOC(=O)c1cc2sc(=Nc3ccc(Br)cc3)n(N=C3CCCc4cc(OC)ccc43)c2nc1C` [Compound 7, Ethyl-2-((4-bromophenyl)imino)-3-((6-methoxy-3,4-dihydronaphthalen-1(2H)-ylidene)amino)-5-methyl-2,3-dihydrothiazolo [4,5-b]pyridine-6-carboxylate] came in with a melting point of 90 °C.

As for `COc1ccc2c(c1)CCC/C2=N\n1/c(=N/c2ccc(Br)cc2)sc2cc(C(C)=O)c(C)nc21` [Compound 8], the melting point amounted to 128 °C. Also, the midpoint of inhibition in data set [1], the IC50, lay at 43.7 ± 0.59 µM. Further, the IC50 in data set [2] (setting [3]) came to 20 µM. For the same compound, in data set [2] (read-out: IC50 (μM) MCF-7, MTT assay, 0.39-100 μM, 3 days, mean ± SD of three replicates), the IC50 was determined as 20 ± 0.52 µM.

`COc1ccc2c(c1)CCCC2=Nn1c(=Nc2ccc(Br)cc2)sc2cc(C#N)c(=O)[nH]c21` [Compound 9, 2-((4-Bromophenyl)imino)-3-((6-methoxy-3,4-dihydronaphthalen-1(2H)-ylidene)amino)-5-oxo-2,3,4,5-tetrahydrothiazolo [4,5-b]pyridine-6-carbonitrile] registered a melting point of 224 °C.

Consider `COc1ccc2c(c1)CCCC2=Nn1c(=Nc2ccc(Br)cc2)sc2cc(C#N)c(=S)[nH]c21` [Compound 10, 2-((4-Bromophenyl)imino)-3-((6-methoxy-3,4-dihydronaphthalen-1(2H)-ylidene)amino)-5-thioxo-2,3,4,5-tetrahydrothiazolo [4,5-b]pyridine-6-carbonitrile], for which the melting point worked out at 286 °C. Moreover, in data set [1], the midpoint of inhibition, the IC50, lay at 15 ± 0.39 µM. The IC50 in data set [2] (setting [3]) stood at 2.83 ± 0.07 µM.

On to `COc1ccc2c(c1)CCCC2=NN1C(=O)C(=CNc2nc3ccccc3[nH]2)SC1=Nc1ccc(Br)cc1` [Compound 11, 5-((1H-Benzo [d]imidazol-2-ylamino)methylene)-2-(4-bromophenylimino)-3-((6-methoxy-3,4-dihydronaphthalen-1(2H)-ylidene)amino)thiazolidin-4-one], for which the melting point was found to be 220 °C.

Regarding `COc1ccc2c(c1)CCCC2=NN1C(=O)C(=CNc2nccs2)SC1=Nc1ccc(Br)cc1` [Compound 12, 2-(4-Bromophenylimino)-3-((6-methoxy-3,4-dihydronaphthalen-1(2H)-ylidene)amino)-5-((thiazol-2-ylamino)methylene)thiazolidin-4-one], the melting point was 152 °C.
